Laboratory results taken from ChEMBL document CHEMBL3871284, “Structure-activity relationship-based screening of antibiotics against Gram-negative Acinetobacter baumannii” (Bioorg Med Chem, 2017).
pKd: −log10 of the molar value. Values after ≈ are worked out from the molar mass of the structure shown. Active and inactive are the calls of the source. The calls are words filed in the database; no cut-off is given here.

Legend:
[1] = system: Acinetobacter baumannii; assay: Antimicrobial activity against multidrug resistant Acinetobacter baumannii CCARM 12035 after 16 hrs by broth microdilution assay; type: functional; conditions: CCARM 12035, 16 h
[2] = system: Acinetobacter baumannii; assay: Antimicrobial activity against multidrug resistant Acinetobacter baumannii CCARM 12036 after 16 hrs by broth microdilution assay; type: functional; conditions: CCARM 12036, 16 h
[3] = system: Pseudomonas aeruginosa; assay: Antimicrobial activity against multidrug resistant Pseudomonas aeruginosa CCARM 2095 after 16 hrs by broth microdilution assay; type: functional; conditions: CCARM 2095, 16 h
[4] = system: Staphylococcus epidermidis; assay: Antimicrobial activity against Staphylococcus epidermidis after 16 hrs by broth microdilution assay; type: functional
[5] = system: Pseudomonas aeruginosa; assay: Antimicrobial activity against multidrug resistant Pseudomonas aeruginosa CCARM 2002 after 16 hrs by broth microdilution assay; type: functional; conditions: CCARM 2002, 16 h
[6] = system: Pseudomonas aeruginosa; assay: Antimicrobial activity against multidrug resistant Pseudomonas aeruginosa CCARM 2163 after 16 hrs by broth microdilution assay; type: functional; conditions: CCARM 2163, 16 h
[7] = system: Acinetobacter baumannii; assay: Antimicrobial activity against multidrug resistant Acinetobacter baumannii CCARM 12005 after 16 hrs by broth microdilution assay; type: functional; conditions: CCARM 12005, 16 h
[8] = system: Bacillus subtilis; assay: Antimicrobial activity against Bacillus subtilis after 16 hrs by broth microdilution assay; type: functional
[9] = system: Acinetobacter baumannii; assay: Antimicrobial activity against multidrug resistant Acinetobacter baumannii CCARM 12037 after 16 hrs by broth microdilution assay; type: functional; conditions: CCARM 12037, 16 h
[10] = system: Escherichia coli; assay: Antimicrobial activity against Escherichia coli KCTC 1682 after 16 hrs by broth microdilution assay; type: functional; conditions: KCTC 1682, 16 h
[11] = system: Staphylococcus aureus; assay: Antimicrobial activity against Staphylococcus aureus after 16 hrs by broth microdilution assay; type: functional
[12] = Antiinflammatory activity in mouse RAW264.7 cells assessed as inhibition of LPS-stimulated IL1beta mRNA expression at 10 uM after 3 hrs in presence of LPS by RT-PCR analysis; type: functional; conditions: RAW264.7, 3 h
[13] = system: Acinetobacter baumannii; assay: Antimicrobial activity against Acinetobacter baumannii KCTC 2508 after 16 hrs by broth microdilution assay; type: functional; conditions: KCTC 2508, 16 h
[14] = Antiinflammatory activity in mouse RAW264.7 cells assessed as inhibition of LPS-stimulated IL6 mRNA expression at 10 uM after 3 hrs in presence of LPS by RT-PCR analysis; type: functional; conditions: RAW264.7, 3 h
[15] = Binding affinity to Acinetobacter baumannii His-tagged KAS3 expressed in Escherichia coli BL21(DE3) by isothermal titration calorimetry assay
[16] = system: Staphylococcus aureus; assay: Antimicrobial activity against Methicillin-resistant Staphylococcus aureus isolate 3114 after 16 hrs by broth microdilution assay; type: functional; conditions: isolate 3114, 16 h
[17] = system: RAW264.7; assay: Antiinflammatory activity in mouse RAW264.7 cells assessed as inhibition of LPS-stimulated NO production at 10 to 20 uM after 24 hrs in presence of LPS; type: functional, cell-based
[18] = system: Escherichia coli; assay: Antimicrobial activity against multidrug resistant Escherichia coli CCARM 1238 after 16 hrs by broth microdilution assay; type: functional; conditions: CCARM 1238, 16 h
[19] = system: Staphylococcus aureus; assay: Antimicrobial activity against Methicillin-resistant Staphylococcus aureus 3126 after 16 hrs by broth microdilution assay; type: functional; conditions: Staphylococcus aureus, 3126, 16 h
[20] = Binding affinity to Acinetobacter baumannii His-tagged KAS3 expressed in Escherichia coli BL21(DE3) by tryptophan emission assay
[21] = Antiinflammatory activity in mouse RAW264.7 cells assessed as inhibition of LPS-stimulated MIP1 mRNA expression at 10 uM after 3 hrs in presence of LPS by RT-PCR analysis; type: functional; conditions: RAW264.7, 3 h
[22] = system: Escherichia coli; assay: Antimicrobial activity against multidrug resistant Escherichia coli CCARM 1229 after 16 hrs by broth microdilution assay; type: functional; conditions: CCARM 1229, 16 h
[23] = Antiinflammatory activity in mouse RAW264.7 cells assessed as inhibition of LPS-stimulated MIP2 mRNA expression at 10 uM after 3 hrs in presence of LPS by RT-PCR analysis; type: functional; conditions: RAW264.7, 3 h
[24] = Antiinflammatory activity in mouse RAW264.7 cells assessed as inhibition of LPS-stimulated TNFalpha mRNA expression at 10 uM after 3 hrs in presence of LPS by RT-PCR analysis; type: functional; conditions: RAW264.7, 3 h
[25] = Antiinflammatory activity in mouse RAW264.7 cells assessed as inhibition of LPS-stimulated iNOS mRNA expression at 10 uM after 3 hrs in presence of LPS by RT-PCR analysis; type: functional; conditions: RAW264.7, 3 h
[26] = system: Pseudomonas aeruginosa; assay: Antimicrobial activity against Pseudomonas aeruginosa KCTC 1637 after 16 hrs by broth microdilution assay; type: functional; conditions: KCTC 1637, 16 h

Row | Structure (SMILES) | MIC [1] [µg/mL] | MIC [2] [µg/mL] | MIC [3] [µg/mL] | MIC [4] [µg/mL] | MIC [5] [µg/mL] | MIC [6] [µg/mL] | MIC [7] [µg/mL] | MIC [8] [µg/mL] | MIC [9] [µg/mL] | MIC [10] [µg/mL] | MIC [11] [µg/mL] | inhibition at 10 µM [12] [%] | MIC [13] [µg/mL] | inhibition at 10 µM [14] [%] | pKd [15] | MIC [16] [µg/mL] | inhibition [17] | MIC [18] [µg/mL] | MIC [19] [µg/mL] | pKd [20] | also measured
1 | Oc1ccc(/C=N/NCc2cccc(C(F)(F)F)c2)cc1 | 16 (≈ 54.4 µM) | 16 (≈ 54.4 µM) | > 32 | 32 (≈ 109 µM) | > 32 | > 32 | 16 (≈ 54.4 µM) | 32 (≈ 109 µM) | 16 (≈ 54.4 µM) | 32 (≈ 109 µM) | 32 (≈ 109 µM) | 63.5 | 8 (≈ 27.2 µM) | 50.6 | 6.90 | > 32 | Active | > 32 | > 32 | 6.66 | inhibition at 10 µM [21]: > 70%; MIC [22]: > 32 µg/mL; inhibition at 10 µM [23]: > 70%; inhibition at 10 µM [24]: > 70%; inhibition at 10 µM [25]: > 70%; MIC [26]: 32 µg/mL (≈ 109 µM)
2 | Cc1ccc(/C=N/NCc2ccc(O)cc2O)cc1Cl | 2 (≈ 6.88 µM) | 2 (≈ 6.88 µM) | 32 (≈ 110 µM) | 8 (≈ 27.5 µM) | > 32 | 32 (≈ 110 µM) | 4 (≈ 13.8 µM) | 16 (≈ 55 µM) | 2 (≈ 6.88 µM) | 32 (≈ 110 µM) | 8 (≈ 27.5 µM) | 10.3 | 2 (≈ 6.88 µM) | 50.6 | 6.71 | 32 (≈ 110 µM) | Active | > 32 | > 32 | 6.04 | inhibition at 10 µM [21]: > 70%; MIC [22]: > 32 µg/mL; inhibition at 10 µM [23]: > 70%; inhibition at 10 µM [24]: > 70%; inhibition at 10 µM [25]: > 70%; MIC [26]: 4 µg/mL (≈ 13.8 µM)
